# Test results as given in paper PMC4859520, “Binding Properties of General Odorant Binding Proteins from the Oriental Fruit Moth, Grapholita molesta (Busck) (Lepidoptera: Tortricidae)” (PLoS ONE, 2016).
# “Also recorded” adds a separate entry of the source. Read-outs that look alike come from different tables or passages of the source.
# What was measured:
# [1] = biological target: GmolGOBP1 (Grapholita molesta, UniProt H9XTU5); assay: Fluorescence competitive binding assay with probe 1-NPN, rGmolGOBP1
# Protocol: (§1) Fluorescence binding assays were performed on a Hitachi (Tokyo, Japan) F-4500 fluorescence spectrophotometer with a 1 cm light path fluorimeter quartz cuvette. Both of the slit widths for excitation and emission were 10 nm. 1-N-phenyl-naphthylamine (1-NPN) was dissolved in HPLC purity grade methanol to yield a 1 mM stock solution. […] The probes were excited at 337 nm and emission spectra were recorded between 370 and 550 nm. […] Binding data were collected in three independent measurements.
# (§2) Dissociation constants of the complex GmolGOBPs/1-NPN (K1-NPN) were calculated by a nonlinear regression binding curve, using Prism 5.0 (GraphPad Software Inc.).
# [2] = biological target: T1, rGmolGOBP1 (Grapholita molesta, UniProt H9XTU5); assay: 1-NPN fluorescence binding titration of rGmolGOBP1; settings: 2 μM protein, 20 mM Tris-HCl pH 7.4; read-out: dissociation constant of 1-NPN
# T1 sequence (H9XTU5 21-164): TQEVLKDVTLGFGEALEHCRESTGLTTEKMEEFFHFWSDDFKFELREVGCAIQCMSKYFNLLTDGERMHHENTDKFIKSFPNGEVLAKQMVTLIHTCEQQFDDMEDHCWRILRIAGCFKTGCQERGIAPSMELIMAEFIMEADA
# Protocol: (§3) Fluorescence binding assays were performed on a Hitachi (Tokyo, Japan) F-4500 fluorescence spectrophotometer with a 1 cm light path fluorimeter quartz cuvette. Both of the slit widths for excitation and emission were 10 nm. 1-N-phenyl-naphthylamine (1-NPN) was dissolved in HPLC purity grade methanol to yield a 1 mM stock solution. A 2 μM solution of the protein in 20 mM Tris-HCl, pH 7.4, was titrated with aliquots of 1 mM 1-NPN to final concentrations of 1, 2, 4, 6, 8, 10, 12, 14, 16, 18, and 22 μM. The probes were excited at 337 nm and emission spectra were recorded between 370 and 550 nm. All ligands (S1 File) used in competitive binding assays were also dissolved in HPLC purity grade methanol. The final concentrations of sex pheromones were between 1 and 22 μM for each rGmolGOBP protein, whereas the concentrations of 30 synthetic plant volatiles to rGmolGOBP1 and 2 were up to 64 and 100 μM, respectively. Binding data were collected in three independent measurements.
# (§4) Dissociation constants of the complex GmolGOBPs/1-NPN (K1-NPN) were calculated by a nonlinear regression binding curve, using Prism 5.0 (GraphPad Software Inc.). […]
# [3] = biological target: T2, rGmolGOBP2 (Grapholita molesta, UniProt H9XTU6); assay: 1-NPN fluorescence binding titration of rGmolGOBP2; settings: 2 μM protein, 20 mM Tris-HCl pH 7.4; read-out: dissociation constant of 1-NPN
# T2 sequence (H9XTU6 entry or part of it): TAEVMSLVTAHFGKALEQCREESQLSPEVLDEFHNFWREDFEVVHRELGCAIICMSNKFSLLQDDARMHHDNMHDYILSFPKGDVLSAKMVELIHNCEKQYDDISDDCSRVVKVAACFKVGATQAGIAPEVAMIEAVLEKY
# Protocol: as §3, §4
# [4] = biological target: GmolGOBP2 (Grapholita molesta, UniProt H9XTU6); assay: Fluorescence competitive binding assay with probe 1-NPN, rGmolGOBP2 wild-type
# Chain of GmolGOBP2 (H9XTU6 entry or part of it): as above
# Protocol: as §1, §2
# [5] = biological target: GmolGOBP2 T9A (Grapholita molesta, UniProt H9XTU6, T29A); assay: Fluorescence competitive binding assay, GmolGOBP2 mutant T9A
# Chain of GmolGOBP2 T9A (H9XTU6 entry or part of it T29A): as the sequence (H9XTU6 entry or part of it) above, with T9A counted along it
# Protocol: as §3
# (§5) Dissociation constants of the complex GmolGOBPs/1-NPN (K1-NPN) were calculated by a nonlinear regression binding curve, using Prism 5.0 (GraphPad Software Inc.). The inhibition constants (Ki) of the competitors were computed from the corresponding IC50 values using the equation: Ki = [IC50]/(1+[1−NPN]/K1−NPN), where [1−NPN] is the free concentration of 1−NPN and K1-NPN is the dissociation constant of the complex protein/1-NPN.
# (§6) Gene-specific primers were designed in accordance with the recommended protocols of the TaKaRa MutanBEST Kit (TaKaRa, Shiga, Japan). The GmolGOBP2 coding sequence was mutated to create the three mutants GmolGOBP2 T9A (threonine to alanine at position 9), GmolGOBP2 V111A (valine to alanine at position 111), and GmolGOBP2 V114A (valine to alanine at position 114). Mutations were obtained using the TaKaRa MutanBEST Kit with Pyrobest DNA polymerase with the pMD19-T/GmolGOBP2 plasmid DNA as template. All plasmids containing mutations were verified by DNA sequencing. Mutated protein expression and enrichment were performed as described above for rGmolGOBP1 and 2. After determining concentrations, purified mutants were applied to verify the binding affinities with dodecanol and its analogs in fluorescence ligand-binding assays.
# [6] = biological target: GmolGOBP2 V111A (Grapholita molesta, UniProt H9XTU6, V131A); assay: Fluorescence competitive binding assay, GmolGOBP2 mutant V111A
# Chain of GmolGOBP2 V111A (H9XTU6 entry or part of it V131A): as the sequence (H9XTU6 entry or part of it) above, with V111A counted along it
# Protocol: as §3, §5, §6
# [7] = biological target: GmolGOBP2 V114A (Grapholita molesta, UniProt H9XTU6, V134A); assay: Fluorescence competitive binding assay, GmolGOBP2 mutant V114A
# Chain of GmolGOBP2 V114A (H9XTU6 entry or part of it V134A): as the sequence (H9XTU6 entry or part of it) above, with V114A counted along it
# Protocol: as §3, §5, §6
# [8] = biological target: T2, rGmolGOBP2; assay: Effect of pH on binding affinity of rGmolGOBP2
# Protocol: Based on the fluorescence measurement experiments as described above, we further evaluated the effects of pH on the binding affinities of GmolGOBP2 to ligands; the binding of GmolGOBP2 to the representative ligand dodecanol was detected at six different pH values (4.0, 5.0, 6.8, 7.4, 8.0 and 8.8) in 20 mM Tris-HCl buffer. All the values of binding affinities were collected in three independent measurements. Data are reported as means±SEM. Difference in pH effect on binding affinity of rGmolGOBP2 was analyzed with one-way analysis of variance (ANOVA), followed by the Student-Newman-Keuls (S-N-K) test at α = 0.05. P<0.05 was considered statistically significant. For statistical analysis we used SPSS 16.0 software (SPSS Inc., Chicago, IL).
# [9] = biological target: rGmolOBP15; design: method as in PMID 26609640; settings: cited from earlier work
# [10] = biological target: rGmolPBP1; design: method as in earlier work; settings: cited from earlier work
# [11] = protein and 1-NPN 2 μM, pH 7.4, calculated from IC50, read-out: GmolGOBP1 Ki
# [12] = protein and 1-NPN 2 μM, pH 7.4, displacing half of initial fluorescence, read-out: GmolGOBP1 IC50
# [13] = protein and 1-NPN 2 μM, pH 7.4, calculated from IC50, read-out: GmolGOBP2 Ki
# [14] = protein and 1-NPN 2 μM, pH 7.4, displacing half of initial fluorescence, read-out: GmolGOBP2 IC50
compound,measurement,setting,value
CCCCCCO [1-Hexanol],Ki,[1]; [11],19.7 µM
same,IC50,[1]; [12],21.4 ± 1.8 µM
"c1ccc(Nc2cccc3ccccc23)cc1 [1-NPN, 1-N-phenyl-naphthylamine]",Kd,[2],11.4 µM
same,Kd,[3],4.73 µM
CCCCC(CC)CO (stereo not drawn) [2-Ethyl-1-hexanol],Ki,[1]; [11],24.8 µM
same,IC50,[1]; [12],27 ± 1.81 µM
CC(C)CCO [3-Methyl-1-butanol],Ki,[1]; [11],10.7 µM
same,IC50,[1]; [12],11.6 ± 0.81 µM
"CCCCCCCCCCCCO [12:OH, dodecanol]",binding to rGmolGOBP1 (in words),[1]; competitive binding with 1-NPN,did not bind
same,Ki,[4]; [13],1.22 µM
same,IC50,[4]; [14],1.78 ± 0.23 µM
same,Ki,[5],6.04 ± 0.17 µM
same,decrease in affinity of T9A mutant,[5]; T9A versus wild-type rGmolGOBP2,3-5 fold
same,Ki,[6],1.35 ± 0.22 µM
same,affinity of V111A mutant versus wild-type (in words),[6]; V111A versus wild-type rGmolGOBP2,slightly lower affinities
same,Ki,[7],1.78 ± 0.13 µM
same,affinity of V114A mutant versus wild-type (in words),[7]; V114A versus wild-type rGmolGOBP2,slightly lower affinities
same,binding affinity of rGmolGOBP2 at pH 4.0 (in words),"[8]; pH 4.0, 20 mM Tris-HCl",weak ability
same,binding affinity of rGmolGOBP2 at pH 7.4 (in words),"[8]; pH 7.4, 20 mM Tris-HCl, six pH values 4.0 to 8.8 compared",maximum value; also recorded: pronounced binding affinity
same,Ki,[9],3.24 µM
CCC/C=C/C=O [(E)-2-Hexenal],IC50,[1],23 ± 1.85 µM
same,Ki,[1],21.2 µM
O=Cc1ccccc1 [Benzaldehyde],IC50,[1],35 ± 3.28 µM
same,Ki,[1],32.2 µM
same,IC50,[4],91.3 ± 2.87 µM
same,Ki,[4],75.4 µM
N#Cc1ccccc1 [Benzonitrile],IC50,[1],40.4 ± 1.95 µM
same,Ki,[1],37.1 µM
CCCCOC(C)=O [Butyl acetate],IC50,[1],39.9 ± 2.66 µM
same,Ki,[1],36.7 µM
CCCCOC(=O)CCC [Butyl butyrate],Ki,[1]; [11],33.1 µM
same,IC50,[1]; [12],36 ± 2.5 µM
CCCCCC(=O)OCCCC [Butyl hexanoate],Ki,[1]; [11],17.7 µM
same,IC50,[1]; [12],19.2 ± 1.27 µM
same,Ki,[4]; [13],43.1 µM
same,IC50,[4]; [14],52.2 ± 2.49 µM
CC/C=C\CCO [Cis-3-Hexen-1-ol],IC50,[1],18.3 ± 1.55 µM
same,Ki,[1],16.8 µM
CC/C=C\CCOC(C)=O [Cis-3-Hexenyl acetate],Ki,[1]; [11],22.4 µM
same,IC50,[1]; [12],24.3 ± 1.71 µM
CCCCCCCCCC=O [Decanal],Ki,[1]; [11],16 µM
same,IC50,[1]; [12],17.4 ± 1.3 µM
same,Ki,[4]; [13],42.4 µM
same,IC50,[4]; [14],51.3 ± 3.18 µM
CCCCCCCCCC [Decane],Ki,[1]; [11],5.19 µM
same,IC50,[1]; [12],5.64 ± 0.69 µM
"CCC/C=C/CCCCCCCOC(C)=O [E8-12:AC, (E)-8-dodecenyl acetate]",Ki,[1]; [11],8.85 µM
same,IC50,[1]; [12],10.5 ± 0.87 µM
same,Ki,[10],1.09 µM
CCCC(=O)OCC [Ethyl butyrate],Ki,[1]; [11],33.2 µM
same,IC50,[1]; [12],36.1 ± 2.88 µM
CCCCCCC(=O)OCC [Ethyl heptanoate],Ki,[1]; [11],34.4 µM
same,IC50,[1]; [12],37.4 ± 2.35 µM
same,Ki,[4]; [13],73.2 µM
same,IC50,[4]; [14],88.7 ± 3.01 µM
CCCCCC(=O)OCC [Ethyl hexanoate],Ki,[1]; [11],35 µM
same,IC50,[1]; [12],38.1 ± 3.36 µM
